The test has as its system P388 leukemia ip, CD2F1 mice, survival T/C. Briefly: NCI In Vivo Anticancer Drug Screen. Data for tumor model P388 Leukemia (intraperitoneal) in CD2F1 (CDF1) mice. The following applies: endpoint: median survival time, higher = longer survival. Summed up: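 Mice carrying the transplanted tumor received test compound or vehicle. Survival was recorded in each group, and the value is the treated-group measurement divided by that of the vehicle-treated control group.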

Where [1] appears, read: dose: 60.0 mg/kg/injection, schedule: Q01DX005 (ip), vehicle: saline with Tween-80.
Setting [2] is: dose: 120.0 mg/kg/injection, schedule: Q01DX005 (ip), vehicle: saline with Tween-80.
The mark [3] stands for this setting: dose: 100.0 mg/kg/injection, schedule: Q04DX003 (ip), vehicle: saline with Tween-80.
The mark [4] stands for this setting: dose: 200.0 mg/kg/injection, schedule: Q04DX003 (ip), vehicle: saline with Tween-80.
Where [5] appears, read: dose: 400.0 mg/kg/injection, schedule: Q04DX003 (ip), vehicle: saline with Tween-80.
Where [6] appears, read: dose: 50.0 mg/kg/injection, schedule: Q01DX009 (ip), vehicle: saline.
The mark [7] stands for this setting: dose: 100.0 mg/kg/injection, schedule: Q01DX009 (ip), vehicle: saline.
Setting [8] is: dose: 200.0 mg/kg/injection, schedule: Q01DX009 (ip), vehicle: saline.
Setting [9] is: dose: 60.0 mg/kg/injection, schedule: Q01DX005 (ip), vehicle: Klucel (hydroxypropylcellulose) (HPC).
Setting [10] is: dose: 50.0 mg/kg/injection, schedule: Q01DX005 (ip), vehicle: saline.
[11] abbreviates: dose: 50.0 mg/kg/injection, schedule: Q01DX009 (ip), vehicle: Klucel (hydroxypropylcellulose) (HPC).
Where [12] appears, read: dose: 100.0 mg/kg/injection, schedule: Q01DX009 (ip), vehicle: Klucel (hydroxypropylcellulose) (HPC).
Setting [13] is: dose: 200.0 mg/kg/injection, schedule: Q01DX009 (ip), vehicle: Klucel (hydroxypropylcellulose) (HPC).
Where [14] appears, read: dose: 50.0 mg/kg/injection, schedule: Q01DX005 (ip), vehicle: saline with Tween-80.
Setting [15] is: dose: 100.0 mg/kg/injection, schedule: Q01DX005 (ip), vehicle: saline with Tween-80.
Setting [16] is: dose: 200.0 mg/kg/injection, schedule: Q01DX005 (ip), vehicle: saline with Tween-80.

The values below come from PubChem BioAssay AID330 (DTP/NCI, 2004).

Structures are written as SMILES. Where “and” joins values, the source holds several entries; their conditions need not be identical. Identical values can stand only once. Toxic doses and inconclusive results are not listed.

Turning to `CC(Sc1ncnc2[nH]ncc12)C(N)=O` (stereo not given), the T/C by setting is: under setting [1], 97 % of control; under setting [2], 97 % of control; (dose: 240.0 mg/kg/injection, schedule: Q01DX005 (ip), vehicle: saline with Tween-80) 118 % of control.

Regarding `O=C(/C=C/c1ccc(F)cc1)c1ccc(Cl)cc1`, the T/C under setting [3] is 90 % of control, the T/C under setting [4] is 86 % of control and the T/C under setting [5] is 100 % of control.

As to `O=[N+]([O-])c1nc(Br)n[nH]1`, the T/C is, setting by setting: (dose: 100.0 mg/kg/injection, schedule: Q04DX002 (ip), vehicle: water) 107 % of control; (dose: 200.0 mg/kg/injection, schedule: Q04DX002 (ip), vehicle: water) 106 % of control.

For the molecule `Cc1c(C2=NCC(C)S2)ccc(O)c1S(=O)(=O)O` (stereo not given), the T/C was 92 % of control under setting [6], 92 % of control under setting [7] and 101 % of control under setting [8].

As to `CCCCCCCC[N+]1(CC)CCCCC1`, the T/C is 104 % of control (dose: 3.12 mg/kg/injection, schedule: Q01DX009 (ip), vehicle: saline); 109 % of control (dose: 6.25 mg/kg/injection, schedule: Q01DX009 (ip), vehicle: saline); 109 % of control (dose: 12.5 mg/kg/injection, schedule: Q01DX009 (ip), vehicle: saline).

For `CSC(C#N)(Cc1ccccc1)N1CCOCC1` (stereo not given), the T/C by setting is: under setting [3], 107 % of control; under setting [4], 103 % of control; under setting [5], 103 % of control.

Consider `CC1=C(C)C(=O)C2=C(OCCO2)C1=O`, for which the T/C by setting is: (dose: 15.0 mg/kg/injection, schedule: Q01DX005 (ip), vehicle: Klucel (hydroxypropylcellulose) (HPC)) 100 % of control; (dose: 30.0 mg/kg/injection, schedule: Q01DX005 (ip), vehicle: Klucel (hydroxypropylcellulose) (HPC)) 106 % of control; under setting [9], 104 % of control.

`COc1cc2c(cc1OC)[C@]13C[C@@H](OC)C=CC14OC4CN3CCC2` (stereo not given in full): the T/C (dose: 20.0 mg/kg/injection, schedule: Q01DX009 (ip), vehicle: saline with Tween-80) is 90 % of control; the T/C (dose: 40.0 mg/kg/injection, schedule: Q01DX009 (ip), vehicle: saline with Tween-80) was 95 % of control; the T/C (dose: 80.0 mg/kg/injection, schedule: Q01DX009 (ip), vehicle: saline with Tween-80) was 90 % of control; the T/C (dose: 150.0 mg/kg/injection, schedule: Q01DX009 (ip), vehicle: saline with Tween-80) is 122 % of control.

With `CC1(C)COC2(OCC(COc3ccccc3)O2)C1O` (stereo not given), the T/C by setting is: under setting [9], 104 % of control; (dose: 120.0 mg/kg/injection, schedule: Q01DX005 (ip), vehicle: Klucel (hydroxypropylcellulose) (HPC)) 98 % of control; (dose: 240.0 mg/kg/injection, schedule: Q01DX005 (ip), vehicle: Klucel (hydroxypropylcellulose) (HPC)) 98 % of control.

Regarding `CN1C2CCC1C(Br)C=C2c1ccccc1` (stereo not given), the T/C under setting [10] is 109 % of control.

Consider `CC(=O)OC1(C)SCCN1C(N)=O` (stereo not given), for which the T/C is 99 % of control under setting [11], 104 % of control under setting [12] and 100 % of control under setting [13].

Take `NCCCCC(C(=O)NC(CCC(=O)OCc1ccccc1)C(=O)Oc1ccc([N+](=O)[O-])cc1)N(C(=O)OCc1ccccc1)C(=O)OCc1ccccc1` (stereo not given): the T/C is, setting by setting: under setting [14], 100 % of control; under setting [15], 100 % of control; under setting [16], 92 % of control.

In the case of `O=C(O)C(Nc1ncnc2c1ncn2C1OC(CO)C(O)C1O)C(F)(F)C(=O)O` (stereo not given), the T/C by setting is: (dose: 100.0 mg/kg/injection, schedule: Q04DX003 (ip), vehicle: saline) 97 % of control; (dose: 200.0 mg/kg/injection, schedule: Q04DX003 (ip), vehicle: saline) 100 % of control; (dose: 400.0 mg/kg/injection, schedule: Q04DX003 (ip), vehicle: saline) 99 % of control.

As for `Cc1cn(C2CC(O)C(CI)O2)c(=O)[nH]c1=O` (stereo not given), the T/C by setting is: under setting [14], 98 % of control; under setting [15], 104 % of control; under setting [16], 98 % of control.

In the case of `CN1C2CCC1C(CCl)C(O)C2` (stereo not given), the T/C under setting [6] is 92 % of control, the T/C under setting [7] was 88 % of control and the T/C under setting [8] was 88 % of control.

As for `CCSSC(=Nc1ccccc1)OCC(C)C`, the T/C was 107 % of control (dose: 50.0 mg/kg/injection, schedule: Q01DX009 (ip), vehicle: saline + Tween-80 + alcohol); 106 % of control (dose: 100.0 mg/kg/injection, schedule: Q01DX009 (ip), vehicle: saline + Tween-80 + alcohol); 123 % of control (dose: 200.0 mg/kg/injection, schedule: Q01DX009 (ip), vehicle: saline + Tween-80 + alcohol).

Consider `C#CCOCC1CO1` (stereo not given), for which the T/C under setting [6] is 110 % of control, the T/C under setting [7] was 110 % of control and the T/C under setting [8] is 115 % of control.

`CC(Cc1ccccc1)N(C)C1=C(CCC#N)CC(C(C)(C)C)CC1` (stereo not given): the T/C was 100 % of control under setting [10] and 100 % of control (dose: 100.0 mg/kg/injection, schedule: Q01DX005 (ip), vehicle: saline).

Consider `O.O.[Cl][Pt+2][Cl].[NH-]C1CC2CCC1C2.[NH-]C1CC2CCC1C2` (stereo not given), for which the T/C is 154 % of control (dose: 33.0 mg/kg/injection, schedule: Q04DX003 (ip), vehicle: saline with Tween-80) and 150 % of control (dose: 50.0 mg/kg/injection, schedule: Q04DX003 (ip), vehicle: saline with Tween-80).

Regarding `O=C1C(Br)=C(Br)C(=O)c2c(Cl)ccc(O)c21`, the T/C is, setting by setting: (dose: 12.5 mg/kg/injection, schedule: Q01DX009 (ip), vehicle: Klucel (hydroxypropylcellulose) (HPC)) 101 % of control; (dose: 25.0 mg/kg/injection, schedule: Q01DX009 (ip), vehicle: Klucel (hydroxypropylcellulose) (HPC)) 98 % of control; under setting [11], 101 % of control and 105 % of control; under setting [12], 88 % of control; under setting [13], 100 % of control.

Regarding `Cn1c(=S)sc2nc3ccccc3n2c1=S`, the T/C runs as follows: (dose: 30.0 mg/kg/injection, schedule: Q01DX005 (ip), vehicle: saline with Tween-80) 117 % of control; under setting [1], 121 % of control; under setting [2], 108 % of control.

Consider `CC(=O)OCc1cnccc1Cl`, for which the T/C was 100 % of control (dose: 100.0 mg/kg/injection, schedule: Q04DX002 (ip), vehicle: saline with Tween-80); 102 % of control (dose: 200.0 mg/kg/injection, schedule: Q04DX002 (ip), vehicle: saline with Tween-80); 94 % of control (dose: 400.0 mg/kg/injection, schedule: Q04DX002 (ip), vehicle: saline with Tween-80).

With `COc1cc(C2c3cc4c(cc3OC(C)(OC)C2C)OCO4)cc(OC)c1OC` (stereo not given), the T/C is 103 % of control (dose: 1.8 mg/kg/injection, schedule: Q01DX005 (ip), vehicle: saline); 98 % of control (dose: 3.75 mg/kg/injection, schedule: Q01DX005 (ip), vehicle: saline); 93 % of control (dose: 7.5 mg/kg/injection, schedule: Q01DX005 (ip), vehicle: saline); 91 % of control (dose: 15.0 mg/kg/injection, schedule: Q01DX005 (ip), vehicle: saline); 89 % of control (dose: 30.0 mg/kg/injection, schedule: Q01DX005 (ip), vehicle: saline); 102 % of control and 86 % of control (dose: 60.0 mg/kg/injection, schedule: Q01DX005 (ip), vehicle: saline). Besides, the T/C runs as follows: (dose: 120.0 mg/kg/injection, schedule: Q01DX005 (ip), vehicle: saline) 86 % of control; (dose: 240.0 mg/kg/injection, schedule: Q01DX005 (ip), vehicle: saline) 92 % of control.

Regarding `CCCCc1ccc(Nc2c(C(=O)O)cnc3cc4c(cc23)OCO4)cc1`, the T/C runs as follows: (dose: 60.0 mg/kg/injection, schedule: Q01DX005 (ip), vehicle: Klucel + Tween-80) 103 % of control; (dose: 120.0 mg/kg/injection, schedule: Q01DX005 (ip), vehicle: Klucel + Tween-80) 100 % of control; (dose: 240.0 mg/kg/injection, schedule: Q01DX005 (ip), vehicle: Klucel + Tween-80) 97 % of control.
